Data: patent publication US20040068002A1, “4-aminobenzopyran derivatives” (priority 2001, published 2004)

Legend:
[1] = tested on: atrial effective refractory period; assay: Effects on the effective refractory period (atrial), anesthetized beagles with vagal nerve stimulation; assay type: in vivo; conditions: 0.3 mg/kg intravenously, from 5 min after administration, after minus before administration
Protocol: (§1) Effects on the Effective Refractory Period
(§2) Beagles were anesthetized with pentobarbital sodium and, under artificially ventilated condition, thoracotomy was conducted along the median and the pericardium was cut open to expose the heart. ECG was recorded using bipolar electrodes attached to the surface of the right atrial free wall, right atrial auricle, and right ventricular free wall. The vagal nerves were stimulated using an electric stimulation device via Nichrome wires inserted into the bilateral vagal nerves in the neck. The conditions for electric stimulation to the vagal nerves were set such that the RR intervals on ECG were prolonged by about 100 msec compared with those before the stimulation was started.
(§3) Electric current twice as strong as the threshold was used for the electric stimulation to the heart, and premature stimulation S2 was applied after giving 10 serial S1 stimulations at the basic stimulation cyclelength. […]
(§4) For evaluation of drug effects, the atrial and ventricular effective refractory periods were determined before drug administration, then each compound was administrated intravenously at the dose of 0.3 mg/kg, and the atrial and ventricular effective refractory periods were determined from 5 min after the administration. […]

[2] = tested on: ventricular effective refractory period; assay: Effects on the effective refractory period (ventricular), anesthetized beagles with vagal nerve stimulation; assay type: in vivo; conditions: 0.3 mg/kg intravenously, from 5 min after administration, after minus before administration
Protocol: as §1, §2, §3, §4

| SMILES | prolongation time in effective refractory period (msec) Atrium [1] [ms] | prolongation time in effective refractory period (msec) ventricle [2] [ms] |
| --- | --- | --- |
| CCCCCN[C@H]1c2cc(NC(C)=O)c([N+](=O)[O-])cc2OC(C)(C)[C@@H]1O (relative stereo) [Synthesis Example 1, (3R*,4S*)-6-acetylamino-3,4-dihydro-2,2-dimethyl-7-nitro-4-n-pentylamino-2H-1-benzopyran-3-ol] | 40 | 5 |
| CCCCCN[C@H]1c2cc(N)c([N+](=O)[O-])cc2OC(C)(C)[C@@H]1O (relative stereo) [Synthesis Example 9, Trans-6-amino-3,4-dihydro-2,2-dimethyl-7-nitro-4-n-pentylamino-2H-1-benzopyran-3-ol] | 27 | 3 |
